Values of other authors in patent US8889663B2, “Formulation for oral transmucosal administration of lipid-lowering drugs” (priority 2008, dated 2014).

Experiments:
[1] = in vivo
[2] = oral, 20 mg or 40 mg dose

Structure (SMILES)	volume of organ and tissue space in which the active principle is distributed [1]	average known residual bioavailability [2]
CC(C)c1c(C(=O)Nc2ccccc2)c(-c2ccccc2)c(-c2ccc(F)cc2)n1CC[C@@H](O)C[C@@H](O)CC(=O)O [atorvastatin]	exceeding 600 L	–
CC[C@H](C)C(=O)O[C@H]1C[C@H](O)C=C2C=C[C@H](C)[C@H](CC[C@@H](O)C[C@@H](O)CC(=O)O)[C@H]21 [provastatin]	–	around 17 % of the administered dose
